{"source": "paper PMC10355216", "about": "“The C-terminal tail of CSNAP attenuates the CSN complex” (Life Science Alliance, 2023)", "key": {"[1]": {"system": "HAP1 WT cells", "assay": "Resazurin-based cell proliferation assay", "conditions": "HAP1 WT cells stably expressing Cer fusions, 24 h after plating, five independent experiments", "text": "Figure 6. Expression of C-CSNAP reduces cellular proliferation rate. (A) Immunoprecipitation analysis using anti-GFP antibody recognizing cerulean (Cer) from lysates of cells expressing the Cer-fused 16AA, 20AA, D42E, and scrambled C-CSNAP in HAP1 WT cells. The COP9 signalosome complex was pulled down from all cells, except when Cer is expressed alone or fused to the scrambled C-CSNAP. Similarly, reciprocal immunoprecipitation by an anti-CSN3 antibody pulled down only the Cer-fused 16AA, 20AA, or D42E C-CSNAP. (B) Stable overexpression of 16AA and 20AA C-CSNAP–Cer in HAP1 WT cells reduces their rate of proliferation. […] One-way ANOVA (P < 0.05) with Dunnett’s multiple comparisons test was used to compare means *P < 0.05, **P < 0.01. […]\nHAP1 WT cells stably expressing Cer, 16AA, and 20AA C-CSNAP–Cer were trypsinized and counted. […] Fluorescence intensities at 560/600 nm (ex/em) were measured, and average intensities of four replicates in each plate were calculated, normalized against WT after background subtraction, and normalized values from five independent experiments were compared on a bar graph with SEM. Significance was calculated using repeated measurment one-way ANOVA (P < 0.05) with Dunnett’s multiple comparisons test was used to compare means to Cer as control *P < 0.05, **P < 0.01."}, "[2]": {"system": "CSN complex", "assay": "Reciprocal co-immunoprecipitation (anti-CSN3, anti-GFP) of Cer fusions in HAP1 cells", "type": "cell-based", "conditions": "peptides fused to Cer expressed in HAP1 cells; anti-CSN3 and anti-GFP pull-downs", "text": "To clarify the ability of C-CSNAP peptides to displace CSNAP in cells, we stably expressed four versions of CSNAP, the 16AA and 20AA C-CSNAP, D42E and scrambled peptides fused to the fluorescent protein Cer in HAP1 cells. As control, we used HAP1 cells expressing Cer only. We then performed reciprocal co-immunoprecipitation analyses, using antibodies against CSN3 and GFP recognizing Cer (Figs 6A and S5). […] This is reflected by the higher intensity of the GFP band upon CSN3 pull down, and by the more intense CSN3 band following GFP co-immunoprecipitation.\nFigure 6. Expression of C-CSNAP reduces cellular proliferation rate. (A) Immunoprecipitation analysis using anti-GFP antibody recognizing cerulean (Cer) from lysates of cells expressing the Cer-fused 16AA, 20AA, D42E, and scrambled C-CSNAP in HAP1 WT cells. The COP9 signalosome complex was pulled down from all cells, except when Cer is expressed alone or fused to the scrambled C-CSNAP. Similarly, reciprocal immunoprecipitation by an anti-CSN3 antibody pulled down only the Cer-fused 16AA, 20AA, or D42E C-CSNAP. (B) Stable overexpression of 16AA and 20AA C-CSNAP–Cer in HAP1 WT cells reduces their rate of proliferation. […] One-way ANOVA (P < 0.05) with Dunnett’s multiple comparisons test was used to compare means *P < 0.05, **P < 0.01.\nFigure S5. […]"}, "[3]": {"biological_target": "CSN^ΔCSNAP complex", "assay": "BIAcore surface plasmon resonance biosensor assay", "conditions": "C-terminally biotinylated peptide immobilized on SA chip, CSN^ΔCSNAP 1-8 nM injected, 180 s binding, 1,000 s dissociation, 25°C, 1:1 binding fit", "text": "To validate the peptide array results, we used the surface plasmon resonance biosensor (Biacore) method to measure the binding affinities between C-CSNAP peptides and CSN^ΔCSNAP. We selected three peptides, the 16 residue C-terminal fragment (^42[…]^57, 16AA C-CSNAP) (Fig 4B), the 20 amino acid peptide (^38[…]^57, 20AA C-CSNAP) (Fig 4C), and a peptide containing the substitution of Asp to Glu at position 42 (D42E C-CSNAP) (Fig 4D). As a positive control, we used full-length CSNAP (Fig 4A), and a scrambled peptide ([…]) (Fig 4E) was used as a negative control. Interaction between the CSN^ΔCSNAP complex and the CSNAP variants was measured using a setting of 180 s binding followed by 1,000 s dissociation time (Fig 4).\nFigure 4. C-CSNAP peptides display high affinity towards the CSN^ΔCSNAP complex. […] (F) Binding rate constants and affinities were determined via Biacore Evaluation Software analysis of SPR sensograms. […]\nThe experiments were carried out using Biacore SA200 SPR sensor (Biacore, GE Healthcare) with control software version 1.1 and Cytiva Series S Sensor chip SA. […] Data were analyzed in SA200 evaluation software version 1.1, with automatic fitting using parameter setting 1:1 binding (ka, kd, and tc global fit, Rmax and RI local fit)."}, "[4]": {"system": "CSN complex (CSN5)", "assay": "Co-immunoprecipitation (anti-GFP) of transiently expressed Cer fusions in HAP1 WT cells", "type": "cell-based", "conditions": "transient expression of Cer fusions, anti-GFP pull-down, CSN5/GFP densitometry, at least three experiments", "text": "To define whether C-CSNAP can displace the endogenous CSN subunit from the complex, we transiently expressed several versions of C-CSNAP peptides with differing lengths, fused to the fluorescent protein cerulean (Cer) in WT HAP1 cells (Fig 2A) and cells lacking CSNAP (ΔCSNAP cells) (Fig S2A). We then performed co-immunoprecipitation analyses, using an antibody against GFP that recognizes the Cer tag (Figs 2B and C and S2B). […] Moreover, in ΔCSNAP cells, all C-CSNAP derivatives were efficiently incorporated into CSN (Fig S2B), whereas in WT cells, differential integration was observed (Fig 2B). […] Truncations of the 16 amino acid stretch from either end decreased or abolished the incorporation efficiency (Fig 2B and C).\nFigure 2. The last 16 amino acids of CSNAP efficiently displace the endogenous CSNAP subunit. (A) The different CSNAP C-terminal sequences that were examined. The 16 amino acid sequence is highlighted in blue, and the N- or C-terminally truncated forms are labelled in green and magenta, respectively (numbering of residues are corresponding to full length CSNAP). […] (C) Quantification of the densitometry results of at least three independent immunoprecipitation experiments using an anti-GFP antibody, represented as mean ratios of immunoprecipitated CSN5/GFP, followed by normalization to the sample transfected with Cer, plotted as mean ± SEM. […]"}}, "note": "Where no end group is shown, it is not given here.", "data": [{"substance": "20AA C-CSNAP–Cer: 20AA C-CSNAP fused to the fluorescent protein cerulean (Cer), expressed in HAP1 cells (AVHADFFNDFEDLFDDDDIQ; also: fused to Cerulean, end not given here)", "values": [{"measurement": "cell proliferation compared with cells expressing only Cer, in words", "setting": "[1]", "result": "significant reductions in cell proliferation"}, {"measurement": "integration into the CSN complex, based on band intensities, in words", "setting": "[2]", "result": "highest ability to integrate into CSN"}]}, {"substance": "IDGENVSNLDYARKAT [scrambled peptide]", "values": [{"measurement": "Kd", "setting": "[3]", "result": "No measurable binding"}]}, {"substance": "16AA C-CSNAP–Cer: 16AA C-CSNAP fused to the fluorescent protein cerulean (Cer), expressed in HAP1 cells (DFFNDFEDLFDDDDIQ; also: C-terminal fusion to Cerulean via Gly-Ser-Gly-Ser linker)", "values": [{"measurement": "cell proliferation compared with cells expressing only Cer, in words", "setting": "[1]", "result": "significant reductions in cell proliferation"}, {"measurement": "integration into the CSN complex, based on band intensities, in words", "setting": "[2]", "result": "lower"}, {"measurement": "association with / incorporation into the CSN complex, in words", "setting": "[4]", "result": "highest degree of association with the CSN complex"}]}]}
